Where two headings read alike, the source gives them in different places.
Key:
[1] = system: 8E51 Cells permanently infected with LAV (Lymphotropic Adenopathy Virus) and MOLT3 cells; test: Antiviral activity: syncytia formation inhibition (8E51 cells infected with LAV co-incubated with MOLT3 cells); assay type: cell-based; settings: Homo sapiens, MOLT-3
Procedure: The antiviral activity of the compound of the invention was evaluated by the test of the syncytia formation inhibition, according to the procedure reported hereinbelow.
8E51 Cells permanently infected with LAV (Lymphotropic Adenopathy Virus) defective of the po1 gene, and MOLT3 cells (CD4+ human T-lymphoblastoid strain), cultured in RPMI 1640 medium with 10% calf fetal serum were co-incubated in a ratio of 1:2, at a concentration of 10^6 cells/ml, and put in 96-conic shaped bottom wells Microtiter plates. The cells were added with some compounds representative of the invention suitably diluted and, after 30 minutes at 37° C., the whole was centrifuged to obtain a sediment. The […] was incubated for further 2 hours at 37° C., then put in square-bottomed wells. The syncytia (10-100 times bigger than the starting cells) were counted with an optic microscope. In the controls about 100-200 syncytia/well could be seen.

[2] = system: human TNF (Tumor Necrosis Factor) citotoxicity on LM cells (murine fibroblast strain); test: In vitro anti-inflammatory activity: inhibition of the citotoxicity induced by human TNF on a murine fibroblast strain (LM cells, MTT); assay type: cell-based; settings: Mus musculus; for inhibition at 100 µg/mL: compound 100 μg/ml; for inhibition at 10 µg/mL: compound 10 μg/ml
Procedure: In vitro anti-inflammatory activity
In a 96-square bottomed wells plate 15.000 LM cells (Rubin. B. Y. et al., J.Exp. Med., 162:1099, 1985) were inseminated each well (100 μl) in complete RPMI medium (Flow Lab., Hertz. GB). Each well was added with 50 μl of a solution of a compound to be tested at the due concentration, and 50 μl of a solution of TNF at the due concentration. After 2 days, each well was added with 40 μl of a solution of MTT [3-(4,5-dimethylthiazol-2-yl)-2,5-diphenyltetrazolium bromide], and the whole was incubated at 37° C. for 4 hours, then the content of the wells was sucked up, added with 200 μl/well of dimethylsulfoxide to dissolve the blue crystals of formazane formed because of the cell activity, then the optical density values were read by a reader with a 570 nm filter. […] The optical density values are directly proportional to the inhibitory activity performed by the compounds of the invention against TNF.

[3] = system: Carrageenan-induced oedema; test: Carrageenan-induced oedema (acute inflammation); assay type: in vivo; settings: oral; for % of inhibition (reduction of the oedema), 1 hour: 1 hour after carrageenan; for % of inhibition (reduction of the oedema), 3 hours: 3 hours after carrageenan; for % of inhibition (reduction of the oedema), 5 hours: 5 hours after carrageenan
Procedure: In vivo anti-inflammatory activity: models of acute inflammation
A. Carrageenan-induced oedema The test is disclosed, inter alia, by Blake, D. R. et al., Ann. Rheum. Dis., 43, 89-93, 1983. The animals were orally administered with 10 or 30 mg/kg doses of the compounds of the invention 1 hour before the injection of carrageenan. The condition of the oedema was checked 1, 3 and 5 hours after said injection. In Table 3 the percentage of reduction of the oedema is set forth.

[4] = TNF 1 ng/ml, read-out: % of inhibition, TNF (1 ng/ml)
[5] = TNF 5 ng/ml, read-out: % of inhibition, TNF (5 ng/ml)

Row | SMILES | inhibition at 50 µM [1] | inhibition at 100 µM [1] | inhibition at 100 µg/mL [2, 4] | inhibition at 10 µg/mL [2, 4] | inhibition at 10 µg/mL [2, 5] | inhibition at 100 µg/mL [2, 5] | further results
1 | CCCCN(CCCC)[C@@H]1CCCC[C@H]1OC(=O)OCc1cccnc1 (relative stereo) [4, C]] | 18% | 28% | 23% | – | – | – | –
2 | CCCCN1CCC(COC(=O)OCC2CCN(CCCC)CC2)CC1 [1, E]] | 70% | 79% | – | 45% | – | – | inhibition at 25 µM [1]: 56.5%; inhibition at 200 µM ([1]; 200 μM): 97%
3 | CCCCN(CCCC)[C@@H]1CCCC[C@H]1OC(=O)OCC1CCCN(C)C1 (stereo partly drawn) [5, C]] | 22% | 23% | 36% | 73% | 21% | 30% | –
4 | CCCCN(CCCC)CCC(C)OC(=O)OC(C)CCN(CCCC)CCCC (stereo not drawn) [8, D]] | 55% | 27% | 100% | 100% | 56% | 82% | inhibition at 12.5 µM ([1]; 12.5 μM): 33%; inhibition at 25 µM [1]: 49%
5 | CCCCN(CCCC)CCCC(C)OC(=O)OC(C)CCCN(CCCC)CCCC (stereo not drawn) [10, C]] | 45.5% | – | 100% | 100% | 73% | 95% | inhibition at 25 µM [1]: 29.5%; % of inhibition (reduction of the oedema), 1 hour ([3]; 10 mg/kg): 26.1%; % of inhibition (reduction of the oedema), 3 hours ([3]; 10 mg/kg): 10%; % of inhibition (reduction of the oedema), 1 hour ([3]; 30 mg/kg): 13%; % of inhibition (reduction of the oedema), 3 hours ([3]; 30 mg/kg): 43%; % of inhibition (reduction of the oedema), 5 hours ([3]; 30 mg/kg): 31.3%
6 | CCCCN(CCCC)CCCOC(=O)OC(C)CCCN(CCCC)CCCC (stereo not drawn) [12, B]] | – | – | 65% | 68% | 50% | 62% | –
7 | CCN(CC)CCCCCCOC(=O)OCCCCCCN(CC)CC [13, E]] | 27.5% | 43.5% | 45% | 55% | – | 21% | –
8 | CCCCN(CCCC)CCCCCOC(=O)OCCCCCN(CCCC)CCCC [14, E]] | – | – | 100% | – | – | 59% | –
9 | CN(CCCOC(=O)OCCCN(C)Cc1ccccc1)Cc1ccccc1 [16, D]] | – | 27% | – | – | – | 21% | –
10 | O=C(OCCCN(Cc1ccccc1)Cc1ccccc1)OCCCN(Cc1ccccc1)Cc1ccccc1 [17, D]] | – | 19% | – | – | – | – | –
11 | CC(C)N(CCCCOC(=O)OCCCCN(C(C)C)C(C)C)C(C)C [18, D]] | 55% | 63% | 17% | – | – | – | % of inhibition (reduction of the oedema), 3 hours ([3]; 30 mg/kg): 27%; % of inhibition (reduction of the oedema), 5 hours ([3]; 30 mg/kg): 28.7%
12 | CCCCN(CCCC)CCCOC(=O)OCCCN(CCCC)CCCC [19, D]] | – | – | 48% | 17% | – | – | –
13 | CCCCN(CCCC)CCCC(CC)OC(=O)OC(CC)CCCN(CCCC)CCCC (stereo not drawn) [38, E]] | – | – | – | – | – | – | % of inhibition (reduction of the oedema), 1 hour ([3]; 10 mg/kg): 22.5%; % of inhibition (reduction of the oedema), 3 hours ([3]; 10 mg/kg): 15%; % of inhibition (reduction of the oedema), 5 hours ([3]; 10 mg/kg): 20.5%
